# ± gives the standard deviation of the reports.
row,Compound,glass transition temperature [°C]
1,*c1ccc(Oc2ccc(-c3c(-c4ccccc4)nc4ccc(-c5ccc6nc(-c7ccccc7)c(*)c(-c7ccccc7)c6c5)cc4c3-c3ccccc3)cc2)cc1 (repeat unit),307.50
2,*CC#CC#CCOc1cccc(C(=O)OCCN(CCOC(=O)c2cccc(O*)c2)c2ccc(/N=N/c3ccc(C#N)cc3)cc2)c1 (repeat unit),50.00
3,*CCCCCCCCCCCCCCCCCCNC(=O)NCc1ccc(CNC(=O)N*)cc1 (repeat unit),52.00
4,*c1cccc(Oc2ccc(P(=O)(c3ccccc3)c3ccccc3)c(Oc3cccc(N4C(=O)c5ccc(Oc6ccc(-c7ccc(Oc8ccc9c(c8)C(=O)N(*)C9=O)cc7)cc6)cc5C4=O)c3)c2)c1 (repeat unit),227.00
5,*Oc1c(OC)cc(*)cc1OC (repeat unit),174.10
6,*Oc1ccc(-c2ccc(-c3ccc(Oc4ccc(C(c5ccc(*)cc5)(C(F)(F)F)C(F)(F)F)cc4)c(C(F)(F)F)c3)cc2)cc1C(F)(F)F (repeat unit),207.50
7,*c1ccc(Oc2ccc(-c3ccc(Oc4ccc(N5C(=O)c6ccc(Oc7ccc(C8(c9ccc(Oc%10ccc%11c(c%10)C(=O)N(*)C%11=O)cc9)CCC(C(C)(C)C)CC8)cc7)cc6C5=O)cc4)cc3C)c(C)c2)cc1 (repeat unit),236.00
8,*Oc1ccc(-c2ccc(Oc3ccc(C(=O)c4ccc(*)cc4)cc3)cc2)cc1 (repeat unit),167.00
9,*CCCCCCCCCCCCN1C(=O)c2ccc(C(c3ccc4c(c3)C(=O)N(*)C4=O)(C(F)(F)F)C(F)(F)F)cc2C1=O (repeat unit),101.00
10,*OP(=O)(Oc1ccc([N+](=O)[O-])cc1)Oc1c(Br)cc(C(c2cc(Br)c(*)c(Br)c2)(C(F)(F)F)C(F)(F)F)cc1Br (repeat unit),154.00
11,*Nc1ccc(-c2ccc(NC(=O)c3cc(NC(=O)c4ccc(NC(=O)C(C)N5C(=O)c6ccccc6C5=O)cc4)cc(C(*)=O)c3)cc2)cc1 (repeat unit),202.00
12,*CCOCCOC(=O)C(=O)O* (repeat unit),-28.00
13,*Oc1cccc(OC(=O)CCC(*)=O)c1 (repeat unit),38.20
14,*CC(*)C(=O)OCCCCOC(=O)c1ccc(OC(=O)c2ccc(C#N)cc2)cc1 (repeat unit),40.00
15,*CC(=O)Nc1cccc(NC(=O)COc2ccc3ccccc3c2Sc2c(O*)ccc3ccccc23)c1 (repeat unit),254.00
16,*Oc1ccc(CC(NC(=O)Cc2ccc(OC(=O)CC(C)CCC(*)=O)cc2)C(=O)OCCCCCC)cc1 (repeat unit),38.00
17,*Nc1cc(NC(=O)c2cc(OCCN(C)c3ccc(C#N)cc3)cc(C(*)=O)c2)cc(C(=O)OCCN(C)c2ccc(S(=O)(=O)C(F)(F)C(F)(F)C(F)(F)C(F)(F)C(F)(F)C(F)(F)C(F)(F)C(F)(F)F)cc2)c1 (repeat unit),165.00
18,*Oc1ccc(C(*)=O)cc1 (repeat unit) [Poly(p-hydroxybenzoate)],147 ± 8.5
19,*O[Si](*)(C)CCC(F)(F)C(F)(F)C(F)(F)C(F)(F)F (repeat unit),-75.00
20,*C(=O)c1ccc2c(c1)C(=O)N(c1ccc(C(=O)Nc3ccc(N4C(=O)c5ccc(*)cc5C4=O)cc3)cc1)C2=O (repeat unit),300.00
21,*C(=S)Nc1ccc(Oc2ccc(NC(=S)N3C(=O)c4ccc(C(c5ccc6c(c5)C(=O)N(*)C6=O)(C(F)(F)F)C(F)(F)F)cc4C3=O)cc2)cc1 (repeat unit),260.00
22,*C(=O)Nc1ccc(-c2ccc(NC(=O)c3ccc4c(c3)C(=O)N(c3ccc(S(=O)(=O)c5ccc(N6C(=O)c7ccc(*)cc7C6=O)cc5)cc3)C4=O)cc2)cc1 (repeat unit),370.00
23,*CC(*)OC(=O)c1ccc(OC)cc1 (repeat unit),86.50

row,Compound,glass transition temperature [°C]
1,*CC(*)OC(=O)C(F)(F)C(F)(F)C(F)(F)C(F)(F)C(F)(F)C(F)(F)C(F)(F)C(F)(F)C(F)(F)F (repeat unit),-18.00
2,*CC(*)OC(=O)CC(C)(C)c1ccccc1 (repeat unit),20.00
3,*CC(C)(CCC)COC(=O)c1ccc(-c2ccc(C(=O)O*)cc2)cc1 (repeat unit),95.00
4,*Oc1ccc(Oc2ccc(OC(=O)c3ccccc3-c3ccccc3C(*)=O)cc2)cc1 (repeat unit),147.00
5,*CC(C)(CO*)COCC(F)(F)C(F)(F)C(F)(F)C(F)(F)C(F)(F)C(F)(F)C(F)(F)F (repeat unit),-49.00
6,*CC(*)C(=O)OCCO (repeat unit),20.70
7,*/C=C/C1CC(*)C2C(=O)N(c3ccc(C)cc3)C(=O)C12 (repeat unit),222.00
8,*c1cc(C(=O)OCCC)cc(N2C(=O)CC(C3Cc4ccccc4C4C(=O)N(*)C(=O)C43)C2=O)c1 (repeat unit),249.00
9,*CC(*)(C)C(=O)OC1CCC2CCCCC2C1 (repeat unit),145.00
10,*c1ccc(-c2nc3cc(-c4ccc5nc(-c6ccccc6)c(*)nc5c4)ccc3nc2-c2ccccc2)cc1 (repeat unit) [poly(phenylquinoxaline)],367.43 ± 3.4
11,*CCCCCCN(CC(F)(F)C(F)(F)C(F)(F)C(F)(F)C(F)(F)C(F)(F)C(F)(F)F)C(=O)CCCCC(=O)N(*)CC(F)(F)C(F)(F)C(F)(F)C(F)(F)C(F)(F)C(F)(F)C(F)(F)F (repeat unit),119.40
12,*OC(c1ccco1)C(OC(=O)Nc1ccc(Cc2ccc(NC(*)=O)cc2)cc1)c1ccco1 (repeat unit),74.00
13,*Oc1ccc(NC(=O)NC2CC(C)(C)CC(C)(CNC(=O)Nc3ccc(*)c(-c4ccc(Oc5ccccc5)cc4)c3)C2)cc1-c1ccc(Oc2ccccc2)cc1 (repeat unit),281.00
14,*c1ccc(Oc2ccc(N3C(=O)c4ccc(S(=O)(=O)c5ccc6c(c5)C(=O)N(*)C6=O)cc4C3=O)cc2Br)c(Br)c1 (repeat unit),281.00
15,*Oc1ccc(C(=O)c2cccc(-c3cccc(C(=O)c4ccc(*)cc4)c3)c2)cc1 (repeat unit),123.00
16,*CCOC(=O)C1CCC(C(=O)O*)CC1 (repeat unit),25.00
17,*CCOCCOC(=O)c1ccc(C(=O)O*)cc1 (repeat unit),21.90
18,*c1c(C)cc(C(c2cccc(C(F)(F)F)c2)c2cc(C)c(N3C(=O)c4ccc(-c5ccc6c(c5)C(=O)N(*)C6=O)cc4C3=O)c(C)c2)cc1C (repeat unit),312.90
19,*c1ccc(OCCCCCCCCCCCOC(=O)c2cccc(C(=O)OCCCCCCCCCCCOc3ccc(-c4nnc(*)s4)cc3)c2)cc1 (repeat unit),68.00
20,*CC(*)(C)C(=O)OCCCCCCC(F)(F)C(F)(F)C(F)(F)C(F)(F)C(F)(F)C(F)(F)C(F)(F)C(F)(F)C(F)(F)C(F)(F)C(F)(F)C(F)(F)F (repeat unit),84.00
21,*CC(*)(C)C(=O)OCCBr (repeat unit),52.00
22,*OC(CC(*)=O)C(Cl)(Cl)Cl (repeat unit),163.50
